Values after ≈ are worked out from the molar mass of the structure shown.
Key:
[1] = tested on: Enterococcus sp.; assay: in vitro antibacterial evaluation, MIC by broth dilution; format: cell-based; conditions: broth dilution, 18 hours at 35° C.
How it was run: (§1)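 MIC, the lowest antibiotic concentration preventing growth, was read across 64-0.06 μg/mL with 5×10^5 CFU/mL inoculum. Method followed NCCLS M7-A2 broth dilution using Mueller-Hinton II; Gram-positive strains covered recent methicillin-, penicillin- and/or vancomycin-resistant clinical isolates.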

[2] = tested on: Staphylococcus sp.; assay: as above; format: cell-based; conditions: broth dilution, 18 hours at 35° C.; for MIC Staphylococcus aureus (GC 1131): strain GC 1131
How it was run: as §1

[3] = tested on: Escherichia coli; assay: as above; format: cell-based
How it was run: as §1

[4] = tested on: Streptococcus sp.; assay: as above; format: cell-based; conditions: broth dilution, 18 hours at 35° C.
How it was run: as §1

[5] = tested on: Staphylococcus aureus-SMITH (GC 4543); assay: acute lethal infection in mice; format: in vivo; conditions: acute lethal infection, female CD-1 mice, intraperitoneal challenge, intravenous 30 min. after infection, 7 day survival
How it was run: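 Protocol: bacteria suspended in trypticase soy broth or hog gastric mucin injected ip into female CD-1 mice at a level killing untreated controls in 24-48 hr; compound given iv in saline or 5% dextrose 30 min post-challenge; five mice per dose; ED50 derived from pooled 7 day survival of three runs.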

## CC(c1ccccc1)C1NC(=O)CNC(=O)C(CO)NC(=O)C(C(O)C2CNC(=N)N2C2OC(CO)C(O)C(O)C2O)NC(=O)C(C(O)C2CNC(=N)N2)NC(=O)C(Cc2ccc(OC3OC(CO)C(OC4OC5COC(c6ccc7c(c6)OCO7)OC5C(O)C4O)C(O)C3O)cc2)NC1=O (stereo not drawn) [Example 143, Cyclo[glycyl-β-methylphenylalanyl-O-[4-O-[4,6-O-(1,3-benzodioxol-5-ylmethylene)hexopyranosyl]hexopyranosyl]tyrosyl-3-(2-iminoimidazolidin-4-yl)seryl-3-(3-hexopyranosyl-2-iminoimidazolidin-4-yl)serylseryl]]
[1]; Enterococcus avium (GC 4558)
  MIC Enterococcus avium (GC 4558): 8 to 16 µg/mL
[1]; Enterococcus faecalis (ATCC 29212)
  MIC Enterococcus faecalis (ATCC 29212): 8 to 16 µg/mL
[1]; Enterococcus faecalis (GC 2242)
  MIC Enterococcus faecalis (GC 2242): 4 to 16 µg/mL
[1]; Enterococcus faecalis (GC 2691)
  MIC Enterococcus faecalis (GC 2691): 8 µg/mL (≈ 5.6 µM)
[1]; Enterococcus faecalis (GC 3059)
  MIC Enterococcus faecalis (GC 3059): 8 to 16 µg/mL
[1]; Enterococcus faecalis (GC 4552)
  MIC Enterococcus faecalis (GC 4552): 8 to 16 µg/mL
[1]; Enterococcus faecalis (GC 4553)
  MIC Enterococcus faecalis (GC 4553): 8 to 16 µg/mL
[1]; Enterococcus faecalis (GC 4554)
  MIC Enterococcus faecalis (GC 4554): 8 to 16 µg/mL
[1]; Enterococcus faecalis (GC 6189)
  MIC Enterococcus faecalis (GC 6189): 4 to 16 µg/mL
[1]; Enterococcus faecium (GC 2243)
  MIC Enterococcus faecium (GC 2243): 8 to 16 µg/mL
[1]; Enterococcus faecium (GC 4556)
  MIC Enterococcus faecium (GC 4556): 8 to 16 µg/mL
[1]; Enterococcus faecium (GC 4557)
  MIC Enterococcus faecium (GC 4557): 2 to 8 µg/mL
[1]; strain ATCC 29212
  MIC Enterococcus faecalis (ATCC 29212): 8 to 16 µg/mL
[1]; strain GC 2242
  MIC Enterococcus faecalis (GC 2242): 4 to 16 µg/mL
[1]; strain GC 2243
  MIC Enterococcus faecium (GC 2243): 8 to 16 µg/mL
[1]; strain GC 2691
  MIC Enterococcus faecalis (GC 2691): 8 µg/mL (≈ 5.6 µM)
[1]; strain GC 3059
  MIC Enterococcus faecalis (GC 3059): 8 to 16 µg/mL
[1]; strain GC 4552
  MIC Enterococcus faecalis (GC 4552): 8 to 16 µg/mL
[1]; strain GC 4553
  MIC Enterococcus faecalis (GC 4553): 8 to 16 µg/mL
[1]; strain GC 4554
  MIC Enterococcus faecalis (GC 4554): 8 to 16 µg/mL
[1]; strain GC 4556
  MIC Enterococcus faecium (GC 4556): 8 to 16 µg/mL
[1]; strain GC 4557
  MIC Enterococcus faecium (GC 4557): 2 to 8 µg/mL
[1]; strain GC 4558
  MIC Enterococcus avium (GC 4558): 8 to 16 µg/mL
[1]; strain GC 6189
  MIC Enterococcus faecalis (GC 6189): 4 to 16 µg/mL
[2]; inoculum 5×10^5 CFU/mL
  MIC Staphylococcus aureus (GC 1131): 2 to 4 µg/mL
[2]; strain ATCC 29213
  MIC Staphylococcus aureus (ATCC 29213): 2 to 4 µg/mL
[2]
  MIC Staphylococcus aureus (GC 1131): 2 to 4 µg/mL
[2]; strain GC 3051
  MIC Staphylococcus aureus (GC 3051): 2 to 4 µg/mL
[2]; strain GC 3053
  MIC Staphylococcus aureus (GC 3053): 4 to 8 µg/mL
[2]; strain GC 4541
  MIC Staphylococcus aureus (GC 4541): 2 to 4 µg/mL
[2]; strain GC 4542
  MIC Staphylococcus aureus (GC 4542): 1 to 4 µg/mL
[2]; strain GC 4543
  MIC Staphylococcus aureus-SMITH (GC 4543): 2 to 4 µg/mL
[2]; strain GC 4544
  MIC Staphylococcus aureus (GC 4544): 2 to 8 µg/mL
[2]; strain GC 4545
  MIC Staphylococcus aureus (GC 4545): 2 to 4 µg/mL
[2]; strain GC 4546
  MIC Staphylococcus haemolyticus (GC 4546): 0.5 to 2 µg/mL
[2]; strain GC 4547
  MIC Coagulase Negative Staphylococcus (GC 4547): 1 to 2 µg/mL
[2]; strain GC 4548
  MIC Coagulase Negative Staphylococcus (GC 4548): 1 to 2 µg/mL
[2]; strain GC 4549
  MIC Coagulase Negative Staphylococcus (GC 4549): 1 µg/mL (≈ 0.701 µM)
[2]; strain GC 4551
  MIC Coagulase Negative Staphylococcus (GC 4551): 2 to 4 µg/mL
[2]; strain GC 6257
  MIC Coagulase Negative Staphylococcus (GC 6257): 1 to 2 µg/mL
[2]; strain SMITH GC 4543
  MIC Staphylococcus aureus-SMITH (GC 4543): 2 to 4 µg/mL
[3]; strain ATCC 25922, 18 hours at 35° C.
  MIC Escherichia coli (ATCC 25922): >64 µg/mL
[3]; strain GC 4559, 18 hours at 35° C.
  MIC Escherichia coli (GC 4559): 64 µg/mL (≈ 44.8 µM)
[3]; strain GC 4560, 18 hours at 35° C.
  MIC Escherichia coli (GC 4560): 1 to 2 µg/mL
[4]; Streptococcus agalactiae (GC 4564)
  MIC Streptococcus agalactiae (GC 4564): 0.5 to 1 µg/mL
[4]; Streptococcus pneumoniae (ATCC 6301)
  MIC Streptococcus pneumoniae (ATCC 6301): 0.12 to 0.5 µg/mL
[4]; Streptococcus pneumoniae (GC 1894)
  MIC Streptococcus pneumoniae (GC 1894): <0.06 to 0.12 µg/mL
[4]; Streptococcus pneumoniae (GC 4565)
  MIC Streptococcus pneumoniae (GC 4565): 0.25 to 0.5 µg/mL
[4]; Streptococcus pyogenes (GC 4563)
  MIC Streptococcus pyogenes (GC 4563): 0.25 to 1 µg/mL
[4]; strain ATCC 6301
  MIC Streptococcus pneumoniae (ATCC 6301): 0.12 to 0.5 µg/mL
[4]; strain GC 1894
  MIC Streptococcus pneumoniae (GC 1894): <0.06 to 0.12 µg/mL
[4]; strain GC 4563
  MIC Streptococcus pyogenes (GC 4563): 0.25 to 1 µg/mL
[4]; strain GC 4564
  MIC Streptococcus agalactiae (GC 4564): 0.5 to 1 µg/mL
[4]; strain GC 4565
  MIC Streptococcus pneumoniae (GC 4565): 0.25 to 0.5 µg/mL
[5]
  median effective dose (ED50), Staphylococcus aureus-SMITH (GC 4543): 0.28 mg/kg

Source: patent publication US6914045B2, “Glycopeptide antibiotics” (Wyeth Holdings Corporation, priority 2001, dated 2005)
